Data from US20250136577A1, “HETEROCYCLIC DERIVATIVES AS MALT1 INHIBITORS” (C4X Discovery Limited, priority 2022, published 2025).

Key:
[1] = biological target: FL hMALT1 enzyme (Homo sapiens (Human), UniProt Q9UDY8); assay: MALT1 Protease Assay 2 (Assay 2), higher sensitivity, cleavage of fluorogenic tetrapeptide substrate; format: biochemical; conditions: FL hMALT1 1-10 nM, Ac-LVSR-AMC 100 μM, 0.7 M sodium citrate, 30 min preincubation, 60 min read
Method in brief: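 After 30 min room-temperature preincubation with compound (1% DMSO), enzyme (1-10 nM) cleaved 100 μM Ac-LVSR-AMC in pH 7.0 HEPES buffer containing 0.7 M sodium citrate, CHAPS and TCEP. Fluorescence (ex 360/em 460 nm) signal was taken as 60 min minus time 0. IC50 came from 4-parameter fits of % inhibition.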

[2] = biological target: MALT1-GS-Ub (6-His-hMALT-1 residues 339-715 fused to ubiquitin) (Homo sapiens (Human), UniProt Q9UDY8); assay: MALT1 Protease Assay 1 (Assay 1), cleavage of fluorogenic tetrapeptide substrate; format: biochemical; conditions: MALT1-GS-Ub 300-600 nM, Ac-LVSR-AMC 100 μM, 30 min preincubation, 60 min read
MALT1-GS-Ub (6-His-hMALT-1 residues 339-715 fused to ubiquitin), sequence (Q9UDY8 other isoform, or with tags, fused parts or gaps): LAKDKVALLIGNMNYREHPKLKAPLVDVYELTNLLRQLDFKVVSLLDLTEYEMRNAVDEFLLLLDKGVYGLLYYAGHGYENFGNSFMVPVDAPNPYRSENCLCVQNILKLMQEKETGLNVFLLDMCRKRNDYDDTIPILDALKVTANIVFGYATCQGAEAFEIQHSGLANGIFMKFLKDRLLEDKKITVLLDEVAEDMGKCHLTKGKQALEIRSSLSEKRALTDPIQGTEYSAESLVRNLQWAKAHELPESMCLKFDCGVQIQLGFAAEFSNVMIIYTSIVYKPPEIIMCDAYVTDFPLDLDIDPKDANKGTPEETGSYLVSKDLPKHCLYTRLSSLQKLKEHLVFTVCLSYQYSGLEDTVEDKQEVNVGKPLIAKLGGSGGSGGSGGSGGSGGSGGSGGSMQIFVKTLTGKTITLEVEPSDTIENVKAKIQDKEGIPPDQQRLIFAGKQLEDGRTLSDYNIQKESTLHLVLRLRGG
Method in brief: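 E. coli-expressed MALT1-GS-Ub (300–600 nM) preincubated 30 min at room temperature with compound (1% DMSO final), then Ac-LVSR-AMC (100 μM) added in 50 mM HEPES pH 7.0, 25 mM KCl, 0.1% CHAPS, 1 mM TCEP. Fluorescence (ex 360/em 460 nm) change over 60 min gave % inhibition versus no-enzyme and no-compound controls; IC50 from 4-parameter fit.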

[3] = tested on: IL-2 release from stimulated Jurkat cells; assay: Human IL-2 Release Phenotypic Assay (Assay 3); format: cell-based; conditions: Homo sapiens, Jurkat, 48 h, Jurkat cells (clone E6-1), 200 ng/ml PMA + 300 ng/ml ionomycin, IL-2 in supernatant by ELISA
Experimental: Human IL-2 Release Phenotypic Assay (Assay 3)
This assay measured the inhibition by MALT1 inhibitors of the IL-2 release from stimulated Jurkat cells, a human immortalized T lymphocyte cell line. IL-2 production from Jurkat cells is regulated by activation of NFκB signalling, which is in turn regulated by MALT1 protease activity.
Jurkat cells (clone E6-1, ATCC) were cultured in RPMI1640 supplemented with 10% (v/v) FBS and 1% (v/v) penicillin/streptomycin (100× liquid stocks). Cells were seeded in 96-well white tissue culture-treated plates (Perkin Elmer) at 50 000 cells/well and incubated overnight at 37° C., 5% CO2. Test compounds in DMSO at half-log dilutions were added to the cells and incubated for 30 mins. Final DMSO concentration was 0.5%. Cells were then stimulated with 200 ng/ml PMA+300 ng/ml ionomycin and incubated for 48 hours. IL-2 present in the supernatant was then measured by ELISA according to the kit instructions (ELISA MAX Deluxe Set Human IL-2, BioLegend). % inhibition was calculated for each well, using 30 μM of the commercially available MALT1 inhibitor, MLT-748, for 100% inhibition controls and no compound for 0% inhibition controls. IC50 values were calculated using GraphPad Prism using 4-parameter non-linear regression curve fit.

FL hMALT1 enzyme, sequence (Q9UDY8 whole entry): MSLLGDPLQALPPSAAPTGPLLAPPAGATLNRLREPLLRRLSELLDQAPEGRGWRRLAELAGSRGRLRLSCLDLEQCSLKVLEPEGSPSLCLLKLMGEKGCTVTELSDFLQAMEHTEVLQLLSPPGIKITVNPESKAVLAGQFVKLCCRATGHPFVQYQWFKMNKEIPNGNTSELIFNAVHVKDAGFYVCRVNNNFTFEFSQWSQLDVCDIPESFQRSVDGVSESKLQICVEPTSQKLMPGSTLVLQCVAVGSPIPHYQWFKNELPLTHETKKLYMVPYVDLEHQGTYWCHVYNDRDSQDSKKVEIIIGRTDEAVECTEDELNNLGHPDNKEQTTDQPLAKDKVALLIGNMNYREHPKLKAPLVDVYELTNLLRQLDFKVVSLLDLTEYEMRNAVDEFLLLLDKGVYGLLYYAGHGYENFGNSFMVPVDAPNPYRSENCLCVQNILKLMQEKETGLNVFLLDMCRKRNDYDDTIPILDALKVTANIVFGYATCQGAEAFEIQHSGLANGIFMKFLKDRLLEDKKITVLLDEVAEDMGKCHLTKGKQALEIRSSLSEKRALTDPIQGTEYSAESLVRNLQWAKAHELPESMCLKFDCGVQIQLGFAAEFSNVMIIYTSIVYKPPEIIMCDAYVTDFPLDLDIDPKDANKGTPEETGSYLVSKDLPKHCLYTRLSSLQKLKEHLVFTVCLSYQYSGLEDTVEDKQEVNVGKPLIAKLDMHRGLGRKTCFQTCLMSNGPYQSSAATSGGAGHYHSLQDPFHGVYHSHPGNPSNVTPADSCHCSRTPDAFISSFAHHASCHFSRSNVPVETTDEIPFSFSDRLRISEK

Structure (SMILES): CC1(C)CN(C(=O)Nc2cnc(-n3nccn3)c(Cl)c2)c2cncc(Cl)c2O1 [Example 32, 8-Chloro-N-(5-chloro-6-(2H-1,2,3-triazol-2-yl)pyridin-3-yl)-2,2-dimethyl-2,3-dihydro-4H-pyrido[4,3-b][1,4]oxazine-4-carboxamide]
- IC50 [1]: 120 nM
- IC50 [2]: 1800 nM
- IC50 [3]: 1200 nM
